# Data: ChEMBL document CHEMBL1151069 (Bioorg Med Chem Lett, 1996)
# Positions of bridges follow the written chain, without caps; N, C: chain ends. Residues, ends and D or L forms follow the SMILES beside them.
# Experiments:
# [1] = target: T1, Endothelin receptor type B (Bos taurus, UniProt P28088); experiment: Binding activity against Endothelin B receptor expressed from bovine cerebellum membrane preparation; assay type: tissue-based
# T1 sequence (P28088 whole entry): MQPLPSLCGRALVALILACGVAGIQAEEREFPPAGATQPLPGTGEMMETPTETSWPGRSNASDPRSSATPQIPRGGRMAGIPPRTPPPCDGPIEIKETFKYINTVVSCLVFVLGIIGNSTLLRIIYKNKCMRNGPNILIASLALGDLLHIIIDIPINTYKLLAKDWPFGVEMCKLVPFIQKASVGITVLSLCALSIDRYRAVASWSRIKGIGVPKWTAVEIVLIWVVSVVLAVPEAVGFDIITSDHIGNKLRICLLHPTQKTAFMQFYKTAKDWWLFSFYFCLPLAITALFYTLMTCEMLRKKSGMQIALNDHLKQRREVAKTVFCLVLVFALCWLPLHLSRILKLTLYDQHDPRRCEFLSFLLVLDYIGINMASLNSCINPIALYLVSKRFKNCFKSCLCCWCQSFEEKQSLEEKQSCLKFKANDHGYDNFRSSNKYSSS
# Endothelin-1 receptor = target: T2, Endothelin-1 receptor (Bos taurus, UniProt P21450); experiment: Binding activity against Endothelin A receptor expressed from bovine lung membrane preparation; assay type: tissue-based
# T2 sequence (P21450 whole entry): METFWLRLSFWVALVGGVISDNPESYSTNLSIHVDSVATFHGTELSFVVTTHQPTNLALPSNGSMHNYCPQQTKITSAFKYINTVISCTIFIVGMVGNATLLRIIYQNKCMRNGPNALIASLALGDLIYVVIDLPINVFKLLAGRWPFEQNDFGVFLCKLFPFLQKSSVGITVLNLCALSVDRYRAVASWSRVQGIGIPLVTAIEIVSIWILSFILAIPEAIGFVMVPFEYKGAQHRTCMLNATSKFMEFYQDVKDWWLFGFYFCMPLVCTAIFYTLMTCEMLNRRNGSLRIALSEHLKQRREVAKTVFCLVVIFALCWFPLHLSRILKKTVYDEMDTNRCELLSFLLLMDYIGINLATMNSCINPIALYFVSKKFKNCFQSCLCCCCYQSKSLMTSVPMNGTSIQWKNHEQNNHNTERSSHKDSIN
SMILES,IC50 [1] [nM],IC50 (Endothelin-1 receptor) [nM]
C[C@@H]1NC(=O)[C@H]([C@@H](C)O)NC(=O)CNC(=O)[C@H](Cc2c[nH]cn2)NC(=O)[C@H](Cc2c[nH]c3ccccc23)NC(=O)[C@H](CC(N)=O)NC(=O)CNC(=O)C[C@@H](C(=O)N[C@@H](Cc2c[nH]c3ccccc23)C(=O)N[C@@H](Cc2ccccc2)C(=O)N[C@@H](Cc2ccccc2)C(=O)N[C@@H](CC(N)=O)C(=O)N[C@@H](Cc2ccc(O)cc2)C(=O)N[C@@H](Cc2ccc(O)cc2)C(=O)N[C@@H](Cc2ccc3ccccc3c2)C(=O)O)NC(=O)[C@@H]2CCCN2C1=O,6.3,–
C[C@@H]1NC(=O)[C@@H]([C@@H](C)O)NC(=O)CNC(=O)[C@@H](Cc2c[nH]cn2)NC(=O)[C@H](Cc2c[nH]c3ccccc23)NC(=O)[C@@H](CC(N)=O)NC(=O)CNC(=O)C[C@H](C(=O)N[C@@H](Cc2c[nH]c3ccccc23)C(=O)N[C@@H](Cc2ccccc2)C(=O)N[C@@H](Cc2ccccc2)C(=O)N[C@@H](CC(N)=O)C(=O)N[C@@H](Cc2ccc(O)cc2)C(=O)N[C@H](Cc2ccc(O)cc2)C(=O)N[C@@H](Cc2c[nH]c3ccccc23)C(=O)O)NC(=O)[C@H]2CCCN2C1=O,–,> 98
C[C@@H]1NC(=O)[C@H]([C@@H](C)O)NC(=O)CNC(=O)[C@H](Cc2c[nH]cn2)NC(=O)[C@H](Cc2c[nH]c3ccccc23)NC(=O)[C@H](CC(N)=O)NC(=O)CNC(=O)C[C@@H](C(=O)N[C@@H](Cc2c[nH]c3ccccc23)C(=O)N[C@@H](Cc2ccccc2)C(=O)N[C@@H](Cc2ccccc2)C(=O)N[C@@H](CC(N)=O)C(=O)N[C@@H](Cc2ccc(O)cc2)C(=O)N[C@@H](Cc2ccc(O)cc2)C(=O)NCC(=O)O)NC(=O)[C@@H]2CCCN2C1=O (GNWHGTAPDWFFNYYG-OH; lactam N-9),120,> 520
C[C@@H]1NC(=O)[C@@H]([C@@H](C)O)NC(=O)CNC(=O)[C@@H](Cc2cnc[nH]2)NC(=O)[C@H](Cc2c[nH]c3ccccc23)NC(=O)[C@@H](CC(N)=O)NC(=O)CNC(=O)C[C@H](C(=O)N[C@@H](Cc2c[nH]c3ccccc23)C(=O)N[C@@H](Cc2ccccc2)C(=O)N[C@@H](Cc2ccccc2)C(=O)N[C@@H](CC(N)=O)C(=O)N[C@@H](Cc2ccc(O)cc2)C(=O)N[C@@H](Cc2ccc(O)cc2)C(=O)N[C@@H](Cc2c[nH]c3ccccc23)C(=O)O)NC(=O)[C@H]2CCCN2C1=O,–,> 98
